According to patent publication US8822503B2, “2-pyridone compounds” (Taisho Pharmaceutical Co., Ltd, priority 2009, dated 2014):

Molecular target: T1, human liver GK (Homo sapiens, UniProt P35557)
T1 construct: GST (glutathione S-transferase) (N); made in house; host or cells: E. coli
T1 sequence (P35557 1-466 isoform P35557-2): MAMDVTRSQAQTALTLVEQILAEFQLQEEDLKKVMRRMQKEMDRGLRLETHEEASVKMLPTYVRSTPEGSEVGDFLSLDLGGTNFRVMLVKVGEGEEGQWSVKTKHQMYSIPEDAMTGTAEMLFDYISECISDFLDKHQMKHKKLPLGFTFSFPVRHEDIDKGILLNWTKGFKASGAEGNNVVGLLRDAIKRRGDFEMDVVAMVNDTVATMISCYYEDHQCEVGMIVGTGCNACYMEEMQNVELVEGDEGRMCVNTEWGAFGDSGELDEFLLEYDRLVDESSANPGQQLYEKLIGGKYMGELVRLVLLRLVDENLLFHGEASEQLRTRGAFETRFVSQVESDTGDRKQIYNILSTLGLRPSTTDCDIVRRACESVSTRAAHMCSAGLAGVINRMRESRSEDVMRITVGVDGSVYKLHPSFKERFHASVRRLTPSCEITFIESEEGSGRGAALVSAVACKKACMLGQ
Test: GK activation test
Format: biochemical
Conditions: test compound concentration needed to activate 50% of maximum activation ability; 4 mM 14C-labeled glucose, 2 mM ATP, room temperature, 20 minutes
Method in brief: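 GST-tagged human liver GK from E. coli (0.24 μg/well) with 4 mM 14C-glucose, 2 mM ATP in Hepes-KOH pH 7.1, KCl, MgCl2, DTT, 1% DMSO, 20 min room temperature. Labeled glucose 6-phosphate captured on anion resin, eluted and counted. EC50 = concentration giving half of maximal activation.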

| EC50 | SMILES |
| --- | --- |
| 3000 to 10000 nM | O=C1CC[C@H](C[C@@H](c2ccc(Cl)c(Cl)c2)c2ccc(C3CC3)c(=O)[nH]2)N1 [Example 4-208, 3-Cyclopropyl-6-{(1S)-1-(3,4-dichlorophenyl)-2-[(2R)-5-oxopyrrolidin-2-yl]ethyl}pyridin-2(1H)-one] |
| 3000 to 10000 nM | O=C1CC[C@H](CC(c2ccc(C3CC3)c(=O)[nH]2)c2ccc(Cl)cc2F)N1 (single isomer, unassigned) [Example 4-335] |
| 10 to 500 nM | CC(C)(C)c1ccc(/C(=C\[C@H]2CCC(=O)N2)c2ccc(-c3cn[nH]c3)c(=O)[nH]2)cc1 [Example 4-361, 6-{(E)-1-(4-tert-Butylphenyl)-2-[(2R)-5-oxopyrrolidin-2-yl]ethenyl}-3-(1H-pyrazol-4-yl)pyridin-2(1H)-one] |
| 10 to 500 nM | CC(C)(C)c1ccc(C(C[C@H]2CCC(=O)N2)c2ccc(C3CC3)c(=O)[nH]2)cc1 (stereo partly drawn) [Example 4-358, 6-{1-(4-tert-Butylphenyl)-2-[(2R)-5-oxopyrrolidin-2-yl]ethyl}-3-cyclopropylpyridin-2(1H)-one] |
| 3000 to 10000 nM | CC(=O)Nc1cccc(/C(=C\[C@H]2CCC(=O)N2)c2ccc(Cl)c(=O)[nH]2)c1 [Example 4-163, N-(3-{(E)-1-(5-Chloro-6-oxo-1,6-dihydropyridin-2-yl)-2-[(2R)-5-oxopyrrolidin-2-yl]ethenyl}phenyl)acetamide] |
| 500 to 3000 nM | CC(C)(C)c1ccc(/C(=C\CCN2CCCS2(=O)=O)c2ccc(Cl)c(=O)[nH]2)cc1 [Example 6-12, 6-[(1E)-1-(4-tert-Butylphenyl)-4-(1,1-dioxide-1,2-thiazolidin-2-yl)but-1-en-1-yl]-3-chloropyridin-2(1H)-one] |
| 10 to 500 nM | O=C1CC[C@H](/C=C(/c2ccc(C3CC3)c(=O)[nH]2)c2ccc(Cl)cc2F)N1 [Example 4-266, 6-{(E)-1-(4-Chloro-2-fluorophenyl)-2-[(2R)-5-oxopyrrolidin-2-yl]ethenyl}-3-cyclopropylpyridin-2(1H)-one] |
| 500 to 3000 nM | CCOc1cccc(/C(=C\[C@H]2CCC(=O)N2)c2ccc(C3CC3)c(=O)[nH]2)c1 [Example 4-7, 3-Cyclopropyl-6-{(E)-1-(3-ethoxyphenyl)-2-[(2R)-5-oxopyrrolidin-2-yl]ethenyl}pyridin-2(1H)-one] |
| 3000 to 10000 nM | C[S+]([O-])c1ccc(/C(=C\[C@H]2CCC(=O)N2)c2ccc(Cl)c(=O)[nH]2)cc1 (stereo partly drawn) [Example 4-158, 3-Chloro-6-{(E)-1-[4-(methylsulfinyl)phenyl]-2-[(2R)-5-oxopyrrolidin-2-yl]ethenyl}pyridin-2(1H)-one] |
| 500 to 3000 nM | Cc1cc(/C(=C\[C@H]2CCC(=O)N2)c2ccc(Cl)c(=O)[nH]2)ccc1SC1CC1 [Example 4-34, 3-Chloro-6-{(E)-1-[4-(cyclopropylsulfanyl)-3-methylphenyl]-2-[(2R)-5-oxopyrrolidin-2-yl]ethenyl}pyridin-2(1H)-one] |
| 500 to 3000 nM | CCc1ccc(C(C[C@H]2CCC(=O)N2)c2ccc(Cl)c(=O)[nH]2)cc1 (single isomer, unassigned) [Example 4-308] |
| 10 to 500 nM | O=C1CC[C@H](/C=C(\c2ccc(OC(F)F)c(Cl)c2)c2ccc(C3CC3)c(=O)[nH]2)N1 [Example 4-281, 6-{(E)-1-[3-Chloro-4-(difluoromethoxy)phenyl]-2-[(2R)-5-oxopyrrolidin-2-yl]ethenyl}-3-cyclopropylpyridin-2(1H)-one] |
| 3000 to 10000 nM | O=C1CC[C@H](CC(c2ccc(C3CC3)c(=O)[nH]2)c2ccc(C(F)(F)F)cc2F)N1 (single isomer, unassigned) [Example 4-333] |
| 10 to 500 nM | O=C1CC[C@H](/C=C(\c2ccc(C(F)(F)F)c(F)c2)c2ccc(C3CC3)c(=O)[nH]2)N1 [Example 4-116, 3-Cyclopropyl-6-{(E)-1-[3-fluoro-4-(trifluoromethyl)phenyl]-2-[(2R)-5-oxopyrrolidin-2-yl]ethenyl}pyridin-2(1H)-one] |
| 10 to 500 nM | Cc1cc(C(C[C@H]2CCC(=O)N2)c2ccc(C3CC3)c(=O)[nH]2)ccc1C(F)F (single isomer, unassigned) [Example 4-231] |
| 500 to 3000 nM | CSc1ccc(/C(=C\C2CN(C(C)=O)C2)c2ccc(C3CC3)c(=O)[nH]2)cc1 [Example 4-44, 6-{(E)-2-(1-Acetylazetidin-3-yl)-1-[4-(methylsulfanyl)phenyl]ethenyl}-3-cyclopropylpyridin-2(1H)-one] |
| 10 to 500 nM | CN(C)S(=O)(=O)c1ccc(/C(=C\[C@H]2CCC(=O)N2)c2ccc(C3CC3)c(=O)[nH]2)cc1 [Example 4-292, 4-{(E)-1-(5-Cyclopropyl-6-oxo-1,6-dihydropyridin-2-yl)-2-[(2R)-5-oxopyrrolidin-2-yl]ethenyl}-N,N-dimethylbenzenesulfonamide] |
| 3000 to 10000 nM | O=C1CC[C@H](CC(c2ccc(C(F)(F)F)c(Cl)c2)c2ccc(C3CC3)c(=O)[nH]2)N1 (single isomer, unassigned) [Example 4-255] |
| 10 to 500 nM | CC(C)(C)c1ccc(/C(=C\[C@H]2CCC(=O)N2)c2ccc(-c3ccncc3)c(=O)[nH]2)cc1 [Example 4-179, 6-{(E)-1-(4-tert-Butylphenyl)-2-[(2R)-5-oxopyrrolidin-2-yl]ethenyl}-3,4′-bipyridin-2(1H)-one] |
| 500 to 3000 nM | CCOc1ccc(/C(=C\[C@H]2CCC(=O)N2)c2ccc(Cl)c(=O)[nH]2)cc1 [Example 4-48, 3-Chloro-6-{(E)-1-(4-ethoxyphenyl)-2-[(2R)-5-oxopyrrolidin-2-yl]ethenyl}pyridin-2(1H)-one] |
| 500 to 3000 nM | O=C1CC[C@H](CC(c2ccc3c(c2)CCO3)c2ccc(C3CC3)c(=O)[nH]2)N1 (single isomer, unassigned) [Example 4-209] |
| 10 to 500 nM | Cc1cc(/C(=C\[C@H]2CCC(=O)N2)c2ccc(C3CC3)c(=O)[nH]2)ccc1SC1CC1 [Example 4-12, 3-Cyclopropyl-6-{(E)-1-[4-(cyclopropylsulfanyl)-3-methylphenyl]-2-[(2R)-5-oxopyrrolidin-2-yl]ethenyl}pyridin-2(1H)-one] |

Second part, the compound before the results:

| SMILES | EC50 |
| --- | --- |
| O=C1CC[C@H](/C=C(\c2ccc(SCCCO)c(Cl)c2)c2ccc(C(F)(F)F)c(=O)[nH]2)C1 [Example 1-82, 6-{(E)-1-{3-Chloro-4-[(3-hydroxypropyl)sulfanyl]phenyl}-2-[(1S)-3-oxocyclopentyl]ethenyl}-3-(trifluoromethyl)pyridin-2(1H)-one] | 10 to 500 nM |
| Cc1ccc(/C(=C/C2CCCC2)c2ccc(S(=O)(=O)N(C)C)cc2)[nH]c1=O [Example 1-14, 4-[(E)-2-Cyclopentyl-1-(5-methyl-6-oxo-1,6-dihydropyridin-2-yl)ethenyl]-N,N-dimethylbenzenesulfonamide] | 10 to 500 nM |
| CCN(CC)CCCOc1ccc(/C(=C\[C@H]2CCC(=O)C2)c2ccc(C3CC3)c(=O)[nH]2)cc1Cl [Example 1-79, 6-{(E)-1-{3-Chloro-4-[3-(diethylamino)propoxy]phenyl}-2-[(1S)-3-oxocyclopentyl]ethenyl}-3-cyclopropylpyridin-2(1H)-one] | 10 to 500 nM |
| O=C1CC[C@H](/C=C(\c2ccc(OCCCO)c(Cl)c2)c2ccc(C(F)(F)F)c(=O)[nH]2)C1 [Example 1-81, 6-{(E)-1-[3-Chloro-4-(3-hydroxypropoxy)phenyl]-2-[(1S)-3-oxocyclopentyl]ethenyl}-3-(trifluoromethyl)pyridin-2(1H)-one] | 500 to 3000 nM |
| CCc1ccc(/C(=C/[C@H]2CCC(=O)C2)c2ccc(S(=O)(=O)C3CC3)cc2)[nH]c1=O [Example 1-62, 6-{(E)-1-[4-(Cyclopropylsulfonyl)phenyl]-2-[(1S)-3-oxocyclopentyl]ethenyl}-3-ethylpyridin-2(1H)-one] | 10 to 500 nM |
| Cc1ccc([C@@]2(c3ccc(S(C)(=O)=O)c(Cl)c3)C[C@@H]2C2CCCC2)[nH]c1=O (relative stereo) [Example 3-2, trans-6-{1-[3-Chloro-4-(methylsulfonyl)phenyl]-2-cyclopentylcyclopropyl}-3-methylpyridin-2(1H)-one] | 500 to 3000 nM |
| CCNCCCOc1ccc(/C(=C\C2CCCC2)c2ccc(C3CC3)c(=O)[nH]2)cc1Cl [Example 1-44, 6-[(E)-1-{3-Chloro-4-[3-(ethylamino)propoxy]phenyl}-2-cyclopentylethenyl]-3-cyclopropylpyridin-2(1H)-one] | 500 to 3000 nM |
| Cc1ccc(C(CC2CCCC2)c2ccc(S(=O)(=O)CCCO)c(Cl)c2)[nH]c1=O (stereo not drawn) [Example 2-14, 6-(1-{3-Chloro-4-[(3-hydroxypropyl)sulfonyl]phenyl}-2-cyclopentylethyl)-3-methylpyridin-2(1H)-one] | 500 to 3000 nM |
| O=C1CC[C@H](/C=C(\c2ccc(OCCCCN3CCCC3)c(Cl)c2)c2ccc(Cl)c(=O)[nH]2)N1 [Example 4-64, 3-Chloro-6-{(E)-1-{3-chloro-4-[4-(pyrrolidin-1-yl)butoxy]phenyl}-2-[(2R)-5-oxopyrrolidin-2-yl]ethenyl}pyridin-2(1H)-one] | 10 to 500 nM |
| Cc1ccc(/C(=C/C2CCCC2)c2ccc(S(C)(=O)=O)c(Cl)c2)[nH]c1=O [Example 1-19, 6-{(E)-1-[3-Chloro-4-(methylsulfonyl)phenyl]-2-cyclopentylethenyl}-3-methylpyridin-2(1H)-one] | 10 to 500 nM |
| CSc1ccc(C(CC2CCCCC2)c2ccc(C)c(=O)[nH]2)cc1 (stereo not drawn) [Example 2-16, 6-{2-Cyclohexyl-1-[4-(methylsulfanyl)phenyl]ethyl}-3-methylpyridin-2(1H)-one] | 500 to 3000 nM |
